The source of these data is patent publication US20110059909A1, “METHODS FOR TREATING INFLAMMATORY DISORDERS” (priority 2004, published 2011).

One data set has as its system GalT-2. In words: GalT-2 protein level by immunoblot after antisense transfection. It is filed as cell-based, rat. The conditions noted are these: 48 h after transfection, 200 nM oligo. The method, then: For iNOS protein, the cells were washed with cold Tris buffered saline (TBS; 20 mM Trizma base, and 137 mM NaCl, pH 7.5), lysed in 1×SDS sample loading buffer (62.5 mM Trizma base, 2% w/v SDS, 10% glycerol), following sonication and centrifugation at 15,000×g for 5 min, the supernatant was used for the iNOS western immunoblot assay. The protein concentration of samples was determined with the detergent compatible protein assay reagent (Bio-Rad Laboratories, CA) using bovine serum albumin (BSA) as the standard. Sample was boiled for 3 min with 0.1 volumes of 10% β-mercaptoethanol and 0.5% bromophenol blue mix. […] The membranes were detected by autoradiography using ECL-plus (Amersham Pharmacia Biotech) after washing with TBST buffer.
A 20-mer antisense oligonucleotide of the following sequence (5′-CGCTTGAGCGCAGACATCTT-3′, SEQ ID NO:1) targeted against rat lactosylceramide synthase (GalT-2) were synthesized by Integrated DNA Technology. […] Cells were counted and plated a day before transfection and the following day were treated with Oligofectamine (Invitrogen)-oligonucleotide complexes (200 nM oligo) under serum free conditions. 48 h following transfection, the protein levels of GalT-2 were analyzed using polyclonal antibodies raised against rat GalT-2 (Abjent Inc., CA). […]

The next data set has as its system rat SCI model. Kind of data set: Histology (H&E) and myelin (LFB-PAS) of spinal cord sections, rat SCI model. The data set is classed as in vivo. The text has this: Sprague-Dawley female rats (225-250 g weight) were purchased (Harlan laboratories, Durham, N.C.) for induction of SCI. All rats were given water and food pellets ad libitum and maintained in accordance with the ‘Guide for the Care and Use of Laboratory Animals’ of the US Department of Health and Human Services (National Institutes of Health, Bethesda, Md., USA). The inventors have used a clinically relevant weight-drop device for the induction of SCI in rats as described earlier (Gruner, 1992). Briefly, rats were anesthetized by intraperitoneal (i.p.) administration of ketamine (80 mg/kg) plus xylazine (10 mg/kg) followed by laminectomy at T12. While the spine was immobilized with a stereotactic device, injury (30 g/cm force) was induced by dropping a weight of 5 gm from a height of 6 cm onto an impounder gently placed on the spinal cord. Sham operated animals underwent laminectomy only. Upon recovery from anesthesia, animals were evaluated neurologically and monitored for food and water intake. However, no prophylactic antibiotics or analgesics were used in order to avoid their possible interactions with the experimental therapy of SCI.
Rats were anesthetized and sacrificed by decapitation.

The test system of another data set is neurons. In words: Fluorescent TUNEL / NeuN staining of spinal cord sections following SCI. It is filed as in vivo, rat. The method, then:
TUNEL assay was carried out using APOPTAG Fluorescein In Situ Apoptosis Detection Kit (Serological Corporation, Norcross, Ga.) according to manufacturer's protocol. For double labeling, sections were incubated with mouse anti-neuronal nuclei 1:100 (NeuN, Chemicon, USA). Sections were incubated with TRITC conjugated […] 1:100 (Sigma), mounted in mounting media and visualized by fluorescence microscopy.

The next data set has as its system ERK1/2. Kind of data set: ERK1/2 activation at the lesion epicenter following SCI. It is filed as in vivo, rat.
For data set [1] the following is noted: cited from earlier work.
Data set [2] deals with primary cultured rat neocortical explants. The conditions noted are these: cited from earlier work.
The next data set concerns iNOS. Kind of data set: iNOS expression at the lesion epicenter following SCI.
The subject of another data set is IL-1β. In words: IL-1β expression at the lesion epicenter following SCI.
The test system of another data set is PI-3K. Kind of data set: PI-3 kinase activity assay. The note with it: exogenous lipid. It is filed as cell-based, rat. The method, then: Cells after stimulation in serum-free DMEM/F-12 were lysed with ice-cold lysis buffer containing 1% (vol/vol) NP-40,100 mM NaCl, 20 mM Tris (pH 7.4), 10 mM iodoacetamide, 10 mM NaF, 1 mM sodium orthovanadate, 1 mM […], 1 μg/ml leupeptin, 1 μg/ml antipain, 1 mg/ml aprotinin, and 1 μg/ml pepstatin A. Lysates were incubated at 4° C. for 15 min, followed by centrifugation at 13,000 g for 15 min. The supernatant was pre-cleared with protein G-Sepharose beads (Pharmacia Biotech) for 1 h at 4° C. followed by the addition of 1 μg/ml p85α monoclonal antibody. After 2 h of incubation at 4° C., protein G-Sepharose beads were added and the resulting mixture was further incubated for 1 h at 4° C. The immunoprecipitates were washed twice with lysis buffer, once with phosphate-buffered saline (PBS), once with 0.5 M LiCl and 100 mM Tris (pH 7.6), once in water, and once in kinase buffer (5 mM MgCl2, 0.25 mM EDTA, 20 mM HEPES, pH 7.4). PI-3kinase activity was determined as already described (Ward et al., 1992; Pahan et al., 1999) using a lipid mixture of 100 μl of 0.1 mg/ml PI and 0.1 mg/ml phosphatidylserine dispersed by sonication in 20 mM HEPES (pH 7.0) and 1 mM EDTA. The reaction was initiated by the addition of 20 of [γ-32P] […]

Protocol for ERK1/2: The protein concentration of samples was determined with the detergent compatible protein assay reagent (Bio-Rad Laboratories, CA) using bovine serum albumin (BSA) as the standard. Sample was boiled for 3 min with 0.1 volumes of 10% β-mercaptoethanol and 0.5% bromophenol blue mix. Fifty μg of total cellular protein was resolved by electrophoresis on 8 or 12% polyacrylamide gels, electro-transferred to polyvinylidene difluoride (PVDF) filter and blocked with Tween 20 containing Tris-buffered saline (TBST; 10 mM Trizma base-pH 7.4, 1% Tween 20, and 150 mM NaCl) with 5% skim milk. After incubation with antiserum against iNOS (BD PharMingen, CA), rat GalT-2 (Abjent Inc., CA), H-Ras (Upstate Biotechnology, CA), GFAP (Santa Cruz Biotech, CA), or phospho-specific ERK1/2 (Cell signaling Tech Inc., MA), or pIκ-B (Signal Transduction), in PVDF buffer for 2 h at room temperature, the filters were washed 3 times with TBST buffer and then incubated with horseradish peroxidase conjugated anti-rabbit or mouse IgG for 1 h. The membranes were detected by autoradiography using ECL-plus (Amersham Pharmacia Biotech) after washing with TBST buffer.

As for “AS GalT-2 oligonucleotides: 20-mer antisense oligonucleotide 5′-CGCTTGAGCGCAGACATCTT-3′, SEQ ID NO:1, against rat lactosylceramide synthase (GalT-2) (antisense CGCTTGAGCGCAGACATCTT; chemistry not given here)”, the GalT-2 protein levels entry in the data set with GalT-2 was “diminished protein levels”.

As to `CCCCCCCCCC(=O)NC(CN1CCOCC1)C(O)c1ccccc1.Cl` [PDMP, D-threo-1-Phenyl-2-decanoylamino-3-morpholino-1-propanol.HCl], in the data set on rat SCI model (Day 2 and 3 post-SCI), the “Demyelination at the lesion epicenter” value is “reduced” and the “Tissue necrosis at the lesion epicenter” value is “reduced”. Besides, the “SCI induced white matter vacuolization and tissue necrosis” value in the data set on rat SCI model (PDMP 20 mg/kg i.p. post-SCI, tissue analyzed 24 h post-SCI) was “markedly decreased”. Moreover, the “Protection against tissue destruction” value with rat SCI model (PDMP given 12 h post-SCI, tissue analyzed 24 h post-SCI) was “substantial amount of protection”. Further, in the data set on rat SCI model (PDMP treatment until 12 h post-SCI, 24 h post-SCI), the “Demyelination (LFB staining)” value is on record as “attenuated”. In addition, the “Apoptosis of neurons (TUNEL/NeuN)” value with neurons (24 h post-SCI) was “provided protection”. Besides, the “Effect on neuronal survival in sham operated animals” value with neurons (sham operated, PDMP 20 mg/kg) was “no adverse effect”. The “Activated ERK1/2, double immunofluorescence” value with ERK1/2 (24 h following injury) is on record as “significantly attenuated”. The “Chronic ERK1/2 activation (immunoblot, pERK/ERK)” value with ERK1/2 (PDMP 20 mg/kg post-SCI) is “effectively attenuates”. The Solubility in water entry in data set [1] is “soluble in water”. Besides, the GSL biosynthesis result in data set [2] is listed as “inhibited”. In addition, in the data set on iNOS (12 h following SCI), the “iNOS mRNA (real time PCR) and protein expression” value was “markedly suppressed”. In the data set with iNOS (24 h post-SCI), the “iNOS expression, double immunofluorescence” value is “significantly reduced”. In addition, the “IL-1β mRNA levels” value in the data set on IL-1β (4 h post-SCI) is “markedly inhibited”. The “IL-1β protein levels, immunofluorescence” value in the data set on IL-1β (post-SCI (sections extracted 4 h)) was “significantly suppressed”.

For Lactosylceramide [LacCer], in the data set on PI-3K, the “Reversal of DMS-mediated inhibition of PI-3K activation” value is recorded as “could not reverse”.
